Test results: PMC6736568, “Discovery of Novel Anti-cryptosporidial Activities From Natural Products by in vitro High-Throughput Phenotypic Screening” (Frontiers in Microbiology, 2019)
Counter-ions that a name gives are not always drawn. Like-named read-outs stand apart in the source and are kept apart here.

What was measured:
[1] = system: HCT-8 host cells (Hs18S)
[2] = in vitro; conditions: for cytotoxicity at 41 h, 10 µM: human
[3] = system: Cryptosporidium parvum; assay: qRT-PCR assay of the growth of C. parvum in vitro in HCT-8 host cells (primary and secondary screening, EC50); type: cell-based; conditions: Cryptosporidium parvum, HCT-8; for inhibition at 10 µM: primary screening at 10 uM, read-out: Inhibition (%); for inhibition at 3.3 µM: secondary screening at 3.3 uM, read-out: % Inhibition (3.3 uM)
[4] = primary screening at 10 uM, treated vs control

| SMILES | Hs18S ΔCT ([1]; human, 41 h, 10 μM) | cytotoxicity at 41 h, 10 µM [2] [%] | inhibition at 10 µM [3] [%] | Hs18S ΔCT [1, 4] | cytotoxicity at 10 µM [2] [%] | inhibition at 3.3 µM [3] [%] |
| --- | --- | --- | --- | --- | --- | --- |
| C[C@H](CCC(=O)O)[C@H]1CC[C@H]2[C@@H]3C(=O)C[C@@H]4CC(=O)CC[C@]4(C)[C@H]3CC(=O)[C@]12C [DEHYDROCHOLIC ACID] | -0.06 | -4.2 | -24.5 | – | – | – |
| COc1cc2c(cc1OC)-c1c(oc3c4c(ccc3c1=O)OC(C(C)C)C4)CO2 (stereo not drawn) [DEHYDRODIHYDROROTENONE] | – | – | -21.6 | 0.06 | 4.4 | – |
| C[C@]12CC[C@H](O)CC1=CC[C@@H]1[C@@H]2CC[C@]2(C)C(=O)CC[C@@H]12 [DEHYDROEPIANDROSTERONE] | – | – | 7.05 | -0.03 | -1.9 | – |
| C=C(C)[C@H]1Cc2c(ccc3c(=O)c4c(oc23)COc2cc(OC)c(OC)cc2-4)O1 [DEHYDROROTENONE] | – | – | -38.5 | -0.07 | -4.9 | – |
| COc1ccc2c(c1)OCc1c-2oc2cc(OC)ccc12 [DEHYDROVARIABILIN] | -0.42 | -33.6 | 22 | – | – | – |
| Nc1ncnc2c1ncn2[C@H]1C[C@H](O)[C@@H](CO)O1 [DEOXYADENOSINE] | -0.35 | -27.3 | 44.5 | – | – | – |
| C[C@H](CCC(=O)O)[C@H]1CC[C@H]2[C@@H]3CC[C@@H]4C[C@H](O)CC[C@]4(C)[C@H]3C[C@H](O)[C@]12C [DEOXYCHOLIC ACID] | 0.55 | 31.7 | -39.8 | – | – | – |
| COc1cc(OC)c2c(OC)c(-c3ccc4c(c3)OCO4)c(=O)oc2c1 [DERRUSNIN] | – | – | 14.8 | -0.10 | -7.3 | – |
| COc1cc(OC)c2c(=O)c(-c3ccc4c(c3)OCO4)coc2c1 [DERRUSTONE] | 0.39 | 23.9 | 61.3 | – | – | -77 |
| C=CCSCC=C [DIALLYL SULFIDE] | -0.01 | -0.8 | 19.6 | – | – | – |
| COc1cc(C)c(C(=O)Oc2cc(C)c(C(=O)O)c(O)c2C)c(OC)c1C [DIFFRACTAIC ACID] | 0.91 | 46.7 | -3.8 | – | – | – |
| COc1cc(OC)c(-c2c(OC)cc(OC)cc2OC)c(OC)c1 [DIFUCOL HEXAMETHYL ETHER] | – | – | -10.9 | 0.08 | 5.1 | – |
| C[C@@H]1CC[C@@]2(OC1)O[C@H]1[C@@H](O)[C@H]3[C@@H]4CC[C@H]5C[C@@H](O[C@@H]6O[C@H](CO)[C@H](O[C@@H]7O[C@H](CO)[C@@H](O)[C@H](O[C@@H]8OC[C@@H](O)[C@H](O)[C@H]8O)[C@H]7O[C@@H]7O[C@H](CO)[C@H](O)[C@H](O[C@@H]8O[C@H](CO)[C@@H](O)[C@H](O)[C@H]8O)[C@H]7O)[C@H](O)[C@H]6O)[C@H](O)C[C@]5(C)[C@H]4CC[C@]3(C)[C@H]1[C@@H]2C [DIGITONIN] | – | – | -16.6 | -0.12 | -8.8 | – |
| C[C@]12CC[C@H](O)C[C@H]1CC[C@@H]1[C@@H]2C[C@@H](O)[C@]2(C)[C@@H](C3=CC(=O)OC3)CC[C@]12O [DIGOXIGENIN] | – | – | 95.6 | 0.33 | 19.2 | 69 |
| Cc1c(O)c(O)cc2c1CC=C1[C@@]2(C)CC[C@@]2(C)[C@@H]3C[C@](C)(C(=O)O)CC[C@]3(C)CC[C@]12C [DIHYDROCELASTROL] | – | – | 92.5 | 1.27 | 58.7 | -66 |
| COC(=O)C[C@H]1C(C)(C)[C@@H](OC(C)=O)[C@@H]2CC3C4CC(=O)O[C@@H](c5ccoc5)[C@]4(C)CCC3[C@@]1(C)C2=O (stereo partly drawn) [DIHYDROFISSINOLIDE] | 0.08 | 5.3 | 4.5 | – | – | – |
| Nc1nc2c(c(=O)[nH]1)N=C(CNc1ccc(C(=O)N[C@@H](CCC(=O)O)C(=O)O)cc1)CN2 [DIHYDROFOLIC ACID] | -0.36 | -28.7 | -11.9 | – | – | – |
| CC(=O)O[C@@H]1C[C@H]2C(C)(C)C(=O)CC[C@]2(C)[C@H]2CC[C@@]3(C)[C@H](c4ccoc4)OC(=O)[C@H]4O[C@]43[C@@]21C [DIHYDROGEDUNIN] | -0.24 | -17.9 | 33.3 | – | – | – |
| CCCCCC1C(=O)CCC1CC(=O)OC (stereo not drawn) [DIHYDROJASMONIC ACID, METHYL ESTER] | -0.06 | -4 | -8.77 | – | – | – |
| COc1c(CC(=O)c2cc3c(cc2O)OC(C)(C)C(O)C3)ccc2c1C=CC(C)(C)O2 (stereo not drawn) [DIHYDROMUNDULETONE] | -0.10 | -7.4 | 4.35 | – | – | – |
| COc1cc2c(cc1OC)[C@@H]1C(=O)c3ccc4c(c3O[C@@H]1CO2)CC(C(C)C)O4 (stereo partly drawn) [DIHYDROROTENONE] | – | – | 10.4 | 0.76 | 40.9 | – |
| CN[C@@H]1[C@H](O[C@H]2[C@H](O[C@H]3[C@H](O)[C@@H](O)[C@H](NC(=N)N)[C@@H](O)[C@@H]3NC(=N)N)O[C@@H](C)[C@]2(O)CO)O[C@@H](CO)[C@H](O)[C@H]1O [DIHYDROSTREPTOMYCIN SULFATE] | – | 3.4 | 18 | 0.05 | – | – |
